Values after ≈ are worked out from the molar mass of the structure shown.
What was measured:
Assay in all cases: Broth microdilution MIC in CAMHB
Format in all cases: cell-based
[1] = test system: A. baumannii ATCC 19606; conditions: Acinetobacter baumannii, ATCC19606; MHB; read-out: Minimum Inhibitory Concentration, A. baumannii ATCC 19606
Method in brief: (§1)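 Per CLSI broth microdilution, colonies were grown 3-5 h at 37° C in cation-adjusted Mueller Hinton broth, then diluted to a starting inoculum of 2-8×10^5 CFU/mL against 2-fold serial compound dilutions. Plates were incubated 16-20 h at 37° C, and MIC was read visually as the lowest concentration with no growth.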

[2] = test system: E. coli 901C; conditions: Escherichia coli; E. coli 901C (hyper-permeable); MHB; read-out: Minimum Inhibitory Concentration, E. coli 901C
Method in brief: as §1

[3] = test system: E. coli AG100A; conditions: Escherichia coli, read-out: Minimum Inhibitory Concentration, E. coli AG100A
Method in brief: as §1

[4] = test system: E. coli AG100; conditions: Escherichia coli; E. coli AG100 (wild-type parent); MHB; read-out: Minimum Inhibitory Concentration, E. coli AG100
Method in brief: as §1

[5] = test system: E. coli ATCC 25922; conditions: Escherichia coli, ATCC25922; E. coli ATCC 25922; MHB; read-out: Minimum Inhibitory Concentration, E. coli 25922
Method in brief: as §1

[6] = test system: E. coli D22; conditions: Escherichia coli; E. coli D22 (hyper-permeable); MHB; read-out: Minimum Inhibitory Concentration, E. coli D22
Method in brief: as §1

[7] = test system: K. pneumoniae 848844 producing SHV-11 and KPC-2; conditions: Klebsiella pneumoniae, read-out: Minimum Inhibitory Concentration, K. pneumoniae 848844
Method in brief: as §1

[8] = test system: K. pneumoniae SI-117 producing VIM-1; conditions: Klebsiella pneumoniae, read-out: Minimum Inhibitory Concentration, K. pneumoniae SI-117
Method in brief: as §1

[9] = test system: K. pneumoniae UMM producing SHV-5 and KPC-2; conditions: Klebsiella pneumoniae, read-out: Minimum Inhibitory Concentration, K. pneumoniae UMM
Method in brief: as §1

[10] = test system: P. aeruginosa (ΔmexAB-oprM); conditions: Pseudomonas aeruginosa, read-out: Minimum Inhibitory Concentration, P. aeruginosa ΔmexAB-OprM
Method in brief: as §1

[11] = test system: P. aeruginosa ATCC 27853; conditions: Pseudomonas aeruginosa, ATCC27853; MHB; read-out: Minimum Inhibitory Concentration, P. aeruginosa ATCC 27853
Method in brief: as §1

[12] = test system: P. aeruginosa ATCC 35151; conditions: Pseudomonas aeruginosa, ATCC35151; MHB; hyper-permeable strain; read-out: Minimum Inhibitory Concentration, P. aeruginosa ATCC 35151
Method in brief: as §1

SMILES: O=C(O)c1cccc2c1OB(O)[C@@H](NC(=O)C(NC(=O)N1CCN(CCF)C(=O)C1=O)c1c(F)cc(O)cc1F)C2 (mixture of isomers) [Example 119, (3R)-3-(2-(2,6-difluoro-4-hydroxyphenyl)-2-(4-(2-fluoroethyl)-2,3-dioxopiperazine-1-carboxamido)acetamido)-2-hydroxy-3,4-dihydro-2H-benzo[e][1,2]oxaborinine-8-carboxylic acid]
- MIC [1]: > 128 µg/mL
- MIC [2]: < 0.25 µg/mL
- MIC [3]: 0.5 to 1 µg/mL (≈ 0.865 to 1.73 µM)
- MIC [4]: 8 to 16 µg/mL (≈ 13.8 to 27.7 µM)
- MIC [5]: 8 to 16 µg/mL (≈ 13.8 to 27.7 µM)
- MIC [6]: 0.5 to 1 µg/mL (≈ 0.865 to 1.73 µM)
- MIC [7]: 32 to 64 µg/mL (≈ 55.3 to 111 µM)
- MIC [8]: 32 to 64 µg/mL (≈ 55.3 to 111 µM)
- MIC [9]: 8 to 16 µg/mL (≈ 13.8 to 27.7 µM)
- MIC [10]: 8 to 16 µg/mL (≈ 13.8 to 27.7 µM)
- MIC [11]: > 128 µg/mL
- MIC [12]: 2 to 4 µg/mL (≈ 3.46 to 6.92 µM)

SMILES: NCCN1CCN(C(=O)N[C@H](C(=O)N[C@H]2Cc3cccc(C(=O)O)c3OB2O)c2c(F)cc(O)cc2F)C(=O)C1=O (single isomer, unassigned) [Example 110]
- MIC [1]: > 128 µg/mL
- MIC [2]: 8 to 16 µg/mL (≈ 13.9 to 27.8 µM)
- MIC [3]: 8 to 16 µg/mL (≈ 13.9 to 27.8 µM)
- MIC [4]: > 128 µg/mL
- MIC [5]: > 128 µg/mL
- MIC [6]: 32 to 64 µg/mL (≈ 55.6 to 111 µM)
- MIC [7]: > 128 µg/mL
- MIC [8]: > 128 µg/mL
- MIC [9]: > 128 µg/mL
- MIC [10]: 32 to 64 µg/mL (≈ 55.6 to 111 µM)
- MIC [11]: > 128 µg/mL
- MIC [12]: 8 to 16 µg/mL (≈ 13.9 to 27.8 µM)

SMILES: NCCN1CCN(C(=O)N[C@@H](C(=O)N[C@H]2Cc3cccc(C(=O)O)c3OB2O)c2c(F)cc(O)cc2F)C(=O)C1=O (single isomer, unassigned) [Example 111]
- MIC [1]: > 128 µg/mL
- MIC [2]: 0.5 to 1 µg/mL (≈ 0.869 to 1.74 µM)
- MIC [3]: 0.5 to 1 µg/mL (≈ 0.869 to 1.74 µM)
- MIC [4]: 8 to 16 µg/mL (≈ 13.9 to 27.8 µM)
- MIC [5]: 8 to 16 µg/mL (≈ 13.9 to 27.8 µM)
- MIC [6]: 2 to 4 µg/mL (≈ 3.48 to 6.95 µM)
- MIC [7]: 8 to 16 µg/mL (≈ 13.9 to 27.8 µM)
- MIC [8]: 8 to 16 µg/mL (≈ 13.9 to 27.8 µM)
- MIC [9]: 8 to 16 µg/mL (≈ 13.9 to 27.8 µM)
- MIC [10]: 8 to 16 µg/mL (≈ 13.9 to 27.8 µM)
- MIC [11]: > 128 µg/mL
- MIC [12]: 0.5 to 1 µg/mL (≈ 0.869 to 1.74 µM)

SMILES: NCCN1CCN(C(=O)N[C@@H](C(=O)N[C@H]2Cc3cccc(C(=O)O)c3OB2O)c2cccc(NS(N)(=O)=O)c2)C(=O)C1=O (single isomer, unassigned) [Example 114]
- MIC [1]: > 128 µg/mL
- MIC [2]: 2 to 4 µg/mL (≈ 3.24 to 6.48 µM)
- MIC [3]: 2 to 4 µg/mL (≈ 3.24 to 6.48 µM)
- MIC [4]: 32 to 64 µg/mL (≈ 51.8 to 104 µM)
- MIC [5]: 32 to 64 µg/mL (≈ 51.8 to 104 µM)
- MIC [6]: 8 to 16 µg/mL (≈ 13 to 25.9 µM)
- MIC [7]: 32 to 64 µg/mL (≈ 51.8 to 104 µM)
- MIC [8]: 32 to 64 µg/mL (≈ 51.8 to 104 µM)
- MIC [9]: 32 to 64 µg/mL (≈ 51.8 to 104 µM)
- MIC [10]: 2 to 4 µg/mL (≈ 3.24 to 6.48 µM)
- MIC [11]: > 128 µg/mL
- MIC [12]: 0.5 to 1 µg/mL (≈ 0.81 to 1.62 µM)

SMILES: NCCN1CCN(C(=O)N[C@H](C(=O)N[C@H]2Cc3cccc(C(=O)O)c3OB2O)c2cccc(NS(N)(=O)=O)c2)C(=O)C1=O (single isomer, unassigned) [Example 115]
- MIC [1]: > 128 µg/mL
- MIC [2]: 2 to 4 µg/mL (≈ 3.24 to 6.48 µM)
- MIC [3]: 8 to 16 µg/mL (≈ 13 to 25.9 µM)
- MIC [4]: > 128 µg/mL
- MIC [5]: > 128 µg/mL
- MIC [6]: 8 to 16 µg/mL (≈ 13 to 25.9 µM)
- MIC [7]: > 128 µg/mL
- MIC [8]: > 128 µg/mL
- MIC [9]: > 128 µg/mL
- MIC [10]: 8 to 16 µg/mL (≈ 13 to 25.9 µM)
- MIC [11]: > 128 µg/mL
- MIC [12]: 2 to 4 µg/mL (≈ 3.24 to 6.48 µM)

SMILES: NC1(CN2CCN(C(=O)N[C@@H](C(=O)N[C@H]3Cc4cccc(C(=O)O)c4OB3O)c3c(F)cc(O)cc3F)C(=O)C2=O)CC1 (single isomer, unassigned) [Example 121]
- MIC [1]: > 128 µg/mL
- MIC [2]: 0.5 to 1 µg/mL (≈ 0.831 to 1.66 µM)
- MIC [3]: 2 to 4 µg/mL (≈ 3.33 to 6.65 µM)
- MIC [4]: 8 to 16 µg/mL (≈ 13.3 to 26.6 µM)
- MIC [5]: 8 to 16 µg/mL (≈ 13.3 to 26.6 µM)
- MIC [6]: 2 to 4 µg/mL (≈ 3.33 to 6.65 µM)
- MIC [7]: 32 to 64 µg/mL (≈ 53.2 to 106 µM)
- MIC [8]: 32 to 64 µg/mL (≈ 53.2 to 106 µM)
- MIC [9]: 8 to 16 µg/mL (≈ 13.3 to 26.6 µM)
- MIC [10]: 8 to 16 µg/mL (≈ 13.3 to 26.6 µM)
- MIC [11]: > 128 µg/mL
- MIC [12]: 0.5 to 1 µg/mL (≈ 0.831 to 1.66 µM)

SMILES: NC1(CN2CCN(C(=O)N[C@H](C(=O)N[C@H]3Cc4cccc(C(=O)O)c4OB3O)c3c(F)cc(O)cc3F)C(=O)C2=O)CC1 (single isomer, unassigned) [Example 122]
- MIC [1]: > 128 µg/mL
- MIC [2]: 2 to 4 µg/mL (≈ 3.33 to 6.65 µM)
- MIC [3]: 8 to 16 µg/mL (≈ 13.3 to 26.6 µM)
- MIC [4]: 32 to 64 µg/mL (≈ 53.2 to 106 µM)
- MIC [5]: 32 to 64 µg/mL (≈ 53.2 to 106 µM)
- MIC [6]: 8 to 16 µg/mL (≈ 13.3 to 26.6 µM)
- MIC [7]: > 128 µg/mL
- MIC [8]: 32 to 64 µg/mL (≈ 53.2 to 106 µM)
- MIC [9]: 32 to 64 µg/mL (≈ 53.2 to 106 µM)
- MIC [10]: 32 to 64 µg/mL (≈ 53.2 to 106 µM)
- MIC [11]: > 128 µg/mL
- MIC [12]: 2 to 4 µg/mL (≈ 3.33 to 6.65 µM)

SMILES: CCN1CCN(C(=O)N[C@H](C(=O)N[C@H]2Cc3cccc(C(=O)O)c3OB2O)c2ccc(C(=O)O)cc2)C(=O)C1=O (single isomer, unassigned) [Example 123]
- MIC [1]: > 128 µg/mL
- MIC [2]: < 0.25 µg/mL
- MIC [3]: 8 to 16 µg/mL (≈ 14.5 to 29 µM)
- MIC [4]: 32 to 64 µg/mL (≈ 57.9 to 116 µM)
- MIC [5]: > 128 µg/mL
- MIC [6]: 2 to 4 µg/mL (≈ 3.62 to 7.24 µM)
- MIC [7]: > 128 µg/mL
- MIC [8]: > 128 µg/mL
- MIC [9]: > 128 µg/mL
- MIC [10]: 8 to 16 µg/mL (≈ 14.5 to 29 µM)
- MIC [11]: > 128 µg/mL
- MIC [12]: 0.5 to 1 µg/mL (≈ 0.905 to 1.81 µM)

— patent US20230114728A1 (Venatorx Pharmaceuticals, Inc., priority 2019, published 2023)
